Literature values in patent US20140161820A1, “Short-Term Surrogate Test for Investigative Drugs” (priority 2012, published 2014).

How the values were obtained:
[1] = molecular target: T1, cholesteryl ester transfer protein (CETP) (Homo sapiens, UniProt P11597); conditions: phase III, treatment group receiving a combination of atorvastatin (Lipitor) and torcetrapib
T1 construct: host or cells: human trial subjects (endogenous plasma CETP)
T1 sequence (P11597 18-493): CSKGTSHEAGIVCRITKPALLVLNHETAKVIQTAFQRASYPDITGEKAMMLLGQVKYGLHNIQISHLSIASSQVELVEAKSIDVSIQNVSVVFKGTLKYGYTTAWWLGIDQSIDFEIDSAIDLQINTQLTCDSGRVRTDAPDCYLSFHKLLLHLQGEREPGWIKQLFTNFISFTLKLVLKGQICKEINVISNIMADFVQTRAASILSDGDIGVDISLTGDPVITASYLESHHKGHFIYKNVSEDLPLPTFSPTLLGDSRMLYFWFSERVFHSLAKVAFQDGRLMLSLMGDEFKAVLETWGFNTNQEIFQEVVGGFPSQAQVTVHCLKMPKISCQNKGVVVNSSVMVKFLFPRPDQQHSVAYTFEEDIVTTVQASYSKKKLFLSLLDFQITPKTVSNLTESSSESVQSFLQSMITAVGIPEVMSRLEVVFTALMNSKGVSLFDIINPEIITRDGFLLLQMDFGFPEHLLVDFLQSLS

platelets = conditions: in vivo

SMILES | all-cause mortality [1] | time by which anti-platelet effects are measurable (platelets) [min]
CCOC(=O)N1c2ccc(C(F)(F)F)cc2[C@@H](N(Cc2cc(C(F)(F)F)cc(C(F)(F)F)c2)C(=O)OC)C[C@H]1CC [torcetrapib] | excessive all-cause mortality | 
CC(=O)Oc1ccccc1C(=O)O [aspirin] |  | ≤ 60
